# In patent US11033604B2, “Reagents and methods for treating bacterial infection” (priority 2018, dated 2021):
# Non-standard residues stand in square brackets, D forms with d. No end group written: not given here.
# How the values were obtained:
# [1] = system: bacterial biofilm on glass disks; assay: Biofilm formation on α-sheet peptide coated glass disk; assay type: cell-based; conditions: polydopamine-grafted peptide, FIG. 17 (dimeric AP193)
# Description: FIG. 17. Bacterial adherence and growth of biofilm on glass disks and decreased adhesion of bacteria (GFP signal) and biofilm and amyloid formation (Brightfield image) when glass is coated with α-sheet peptides, shown for dimeric AP193. This is a model for biofilm formation on implanted devices such as prosthetic joints.
# We have conjugated α-sheet peptides to other functional molecules to enhance their efficacy at the site of biofilm infection, i.e., the surface of biomedical implants. To this end, we used a polydopamine (PDA) coating approach to facilitate attachment of α-sheet peptides to biomedical implant materials. […]
# For α-sheet peptide grafting, 0.5 mg/mL peptide (e.g. AP90, AP193, or P1 as a control) was dissolved in 10 mM Tris pH 8.0 and then applied to PDA-coated substrates for overnight reaction (18 hours). […] First, the concentration of peptide remaining in solution after conjugation was measured by NanoOrange™ assay to determine coupling efficiency and surface density. Second, accessibility of α-sheet peptides on the surface was determined by immunofluorescence; PGPMs were blocked with 5% BSA solution for 12 h, incubated with AlexaFluor®568-conjugated Pac53 antibody (which recognizes α-sheet peptides), and then washed and imaged on a fluorescent microscope to ensure attachment to the disks. […]
# UTI89 ΔcsgA biofilms = assay: In situ ThT assay in UTI89 ΔcsgA knockout biofilms; assay type: cell-based, E. coli; conditions: UTI89 ΔcsgA knockout strain
# Method: FIG. 12. […] Error bars indicate standard deviation of the mean of at least three replicates. Significance values are p<0.05: *, p<0.01: **, p<0.001: ***.
# Biofilms of the cystitis E. coli isolate UTI89 were cultivated in YESCA broth with 4% DMSO at 26° C., conditions which are known to elicit increased curli biogenesis. Varying doses of the dimeric α-sheet peptide, AP193, were also added to the cultures at the time of inoculation. AP193 is covalently linked through a single cysteine in each of its constituent monomers. Since DMSO was already present in the biofilm growth medium, AP193 stocks were supplemented with 4% DMSO to improve solubility, and the buffer solution was maintained at high pH (sodium carbonate, pH 9.6) to retain oxidation of the disulfide bond. After 48 hours of growth, biofilms were washed, homogenized, and stained with ThT.
# UTI89 biofilms were also cultivated in the presence of an unstructured peptide, P1, which retains a mixture of L- and D-amino acids but lacks the α-sheet secondary structure of AP193.
# [2] = system: S. aureus SH1000 WT biofilms; assay: TEM of biofilm extracellular fibrils; assay type: cell-based, Staphylococcus aureus; conditions: LB medium, 80 μM
# Method: FIG. 2. S. aureus biofilm structures become less robust when grown in the presence of designed peptide inhibitors. (A) S. aureus MN8+mCherry™ biofilms were grown on glass substrates for 24 hours and then cells were washed and fixed. Addition of peptide inhibitors (80 μM) reduced adhesion to the slide, causing cells to detach during the wash step. Images are representative of duplicate wells. (B) In S. aureus SH1000 WT biofilms grown in regular LB medium, PSM amyloid fibrils are visible as deposits in spaces between cells (left). Upon addition of the designed peptide AP90 (80 μM), no extracellular fibril deposits were observed (right).
# To further investigate the ability of designed peptides to inhibit PSM amyloid formation, fluorescent (mCherry™ ) MN8 biofilms were grown in culture plates with glass bottom wells. After 24 hours at 37° C. the biofilms were gently rinsed with pipetted saline to remove unattached biomass and the remaining attached cells were fixed and imaged. […] These qualitative results are in good agreement with the quantitative results obtained for amyloid inhibition in FIG. 1B. Addition of anti-α-sheet peptides triggered a significant reduction in PSM amyloid formation as measured by ThT fluorescence and also served to weaken the S. aureus biofilms by reducing the PSM amyloid fibril content of the extracellular matrix. […]
substance,measurement,setting,value
"RGEmNyFwMNEYYGWtMnCkMGR (RGE[dM]N[dY]F[dW]MNEYYGW[dT]M[dN]C[dK]MGR) [AP193, hydrophobic AP90 derivative, variant to support different chemical coupling reactions]",Amount of bacterial biofilm on peptide-coated glass disk,[1],dramatic drop in the amount of bacterial biofilm
same,ThT fluorescence of biofilm,UTI89 ΔcsgA biofilms,no significant changes
"RGEmNlSwMNEYSGWtMnLkMGR (RGEMNLSWMNEYSGWTMNLKMGR; not fully specified (residues 4, 6, 8, 16, 18, 20); printed as RGEmNlSwMNEYSGWtMnLkMGR) [AP90]",Extracellular PSM amyloid fibril deposits by TEM,[2],amyloid fibrils could not be found
